The values that follow come from ChEMBL document CHEMBL5291721, “A preclinical secondary pharmacology resource illuminates target-adverse drug reaction associations of marketed drugs” (Nat Commun, 2023).

Experiment [1] addresses T1, Mu-type opioid receptor (Homo sapiens, UniProt P35372). Put plainly: biochemical. The format is functional.
The target of experiment [2] is T2, Amine oxidase [flavin-containing] A (Homo sapiens, UniProt P21397).
T2 sequence (P21397 whole entry): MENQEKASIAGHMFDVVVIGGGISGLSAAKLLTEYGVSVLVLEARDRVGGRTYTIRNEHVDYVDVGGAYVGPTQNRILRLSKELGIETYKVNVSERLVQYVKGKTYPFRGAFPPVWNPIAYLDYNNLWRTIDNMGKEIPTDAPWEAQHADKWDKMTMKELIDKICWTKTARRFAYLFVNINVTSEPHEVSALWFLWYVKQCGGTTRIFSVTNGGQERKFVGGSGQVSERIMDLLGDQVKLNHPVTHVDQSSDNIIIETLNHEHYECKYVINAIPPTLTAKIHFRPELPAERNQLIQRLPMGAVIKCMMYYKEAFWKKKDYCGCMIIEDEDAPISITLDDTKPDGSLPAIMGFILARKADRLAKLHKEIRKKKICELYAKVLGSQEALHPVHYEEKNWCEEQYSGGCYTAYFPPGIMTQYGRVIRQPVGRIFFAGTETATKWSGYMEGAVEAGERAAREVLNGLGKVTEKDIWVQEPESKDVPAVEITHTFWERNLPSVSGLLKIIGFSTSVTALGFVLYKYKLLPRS
The format is functional.

The target in experiment [3] is Kappa-type opioid receptor (Homo sapiens, UniProt P41145).
Sequence of Kappa-type opioid receptor (P41145 whole entry): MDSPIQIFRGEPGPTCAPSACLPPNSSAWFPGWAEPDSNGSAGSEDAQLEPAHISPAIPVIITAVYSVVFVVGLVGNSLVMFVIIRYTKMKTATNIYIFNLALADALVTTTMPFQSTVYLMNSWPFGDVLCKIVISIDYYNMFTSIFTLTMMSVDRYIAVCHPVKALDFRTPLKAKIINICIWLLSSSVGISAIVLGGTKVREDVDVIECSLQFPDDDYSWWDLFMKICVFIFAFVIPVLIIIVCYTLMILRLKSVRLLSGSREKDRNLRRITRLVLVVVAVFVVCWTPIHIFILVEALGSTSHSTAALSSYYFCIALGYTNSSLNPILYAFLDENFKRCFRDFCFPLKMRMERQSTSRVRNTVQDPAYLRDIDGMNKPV
Experiment [4] has as its target T3, Alpha-1A adrenergic receptor (Homo sapiens, UniProt P35348).
T3 sequence (P35348 whole entry): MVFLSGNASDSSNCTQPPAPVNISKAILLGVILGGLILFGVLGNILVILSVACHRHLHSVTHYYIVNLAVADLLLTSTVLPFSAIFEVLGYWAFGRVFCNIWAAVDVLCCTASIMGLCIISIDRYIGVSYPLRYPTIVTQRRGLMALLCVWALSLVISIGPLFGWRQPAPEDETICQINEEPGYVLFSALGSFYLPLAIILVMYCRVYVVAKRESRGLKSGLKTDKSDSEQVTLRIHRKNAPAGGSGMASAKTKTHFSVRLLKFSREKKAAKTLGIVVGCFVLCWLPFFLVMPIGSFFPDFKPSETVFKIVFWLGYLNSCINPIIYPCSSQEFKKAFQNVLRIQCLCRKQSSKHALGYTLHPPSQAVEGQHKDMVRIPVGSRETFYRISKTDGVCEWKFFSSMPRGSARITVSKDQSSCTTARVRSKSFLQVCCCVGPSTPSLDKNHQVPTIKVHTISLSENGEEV
The experiment is classed as functional, cell-based.

The target in experiment [5] is T4, Neuropeptide Y receptor type 1 (Homo sapiens, UniProt P25929).
T4 sequence (P25929 whole entry): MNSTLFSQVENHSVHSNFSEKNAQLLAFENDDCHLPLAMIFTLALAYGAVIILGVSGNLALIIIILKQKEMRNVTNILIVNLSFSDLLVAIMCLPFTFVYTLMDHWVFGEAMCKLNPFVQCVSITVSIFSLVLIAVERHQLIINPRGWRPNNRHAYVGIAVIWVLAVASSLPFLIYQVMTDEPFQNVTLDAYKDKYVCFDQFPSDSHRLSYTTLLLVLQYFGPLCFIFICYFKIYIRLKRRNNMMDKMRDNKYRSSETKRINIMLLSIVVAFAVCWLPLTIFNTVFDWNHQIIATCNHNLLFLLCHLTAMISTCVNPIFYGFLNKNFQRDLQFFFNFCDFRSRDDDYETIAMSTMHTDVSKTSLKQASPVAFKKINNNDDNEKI

Experiment [6] deals with 5-hydroxytryptamine receptor 2A (Homo sapiens, UniProt P28223). The format is functional, cell-based.
Sequence of 5-hydroxytryptamine receptor 2A (P28223 whole entry): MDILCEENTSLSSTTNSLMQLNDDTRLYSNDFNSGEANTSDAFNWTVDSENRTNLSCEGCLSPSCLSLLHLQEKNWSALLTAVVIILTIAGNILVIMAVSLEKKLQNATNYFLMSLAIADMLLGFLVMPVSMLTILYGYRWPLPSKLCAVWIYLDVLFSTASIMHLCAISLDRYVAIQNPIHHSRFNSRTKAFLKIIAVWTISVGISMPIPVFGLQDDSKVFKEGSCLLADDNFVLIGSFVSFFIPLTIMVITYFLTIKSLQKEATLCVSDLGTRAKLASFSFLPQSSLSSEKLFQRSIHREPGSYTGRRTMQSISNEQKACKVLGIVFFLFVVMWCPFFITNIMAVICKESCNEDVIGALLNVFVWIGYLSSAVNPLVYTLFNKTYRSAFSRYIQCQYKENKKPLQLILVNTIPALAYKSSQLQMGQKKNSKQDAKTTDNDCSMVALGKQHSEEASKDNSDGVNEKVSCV
The target in experiment [7] is Beta-2 adrenergic receptor (Homo sapiens, UniProt P07550). The format is functional, cell-based.
Sequence of Beta-2 adrenergic receptor (P07550 whole entry): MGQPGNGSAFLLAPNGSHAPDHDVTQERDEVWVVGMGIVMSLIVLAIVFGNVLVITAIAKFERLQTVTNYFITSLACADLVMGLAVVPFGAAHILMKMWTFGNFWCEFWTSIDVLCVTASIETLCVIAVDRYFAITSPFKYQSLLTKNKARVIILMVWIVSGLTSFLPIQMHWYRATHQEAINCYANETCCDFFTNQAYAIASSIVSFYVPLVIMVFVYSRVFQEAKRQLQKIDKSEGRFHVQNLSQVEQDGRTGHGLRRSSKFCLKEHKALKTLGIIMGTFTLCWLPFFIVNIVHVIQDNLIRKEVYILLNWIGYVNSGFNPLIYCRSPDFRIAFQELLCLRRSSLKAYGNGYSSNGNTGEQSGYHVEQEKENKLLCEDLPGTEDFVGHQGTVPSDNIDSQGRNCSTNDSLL
Experiment [8] concerns the target T3, Alpha-1A adrenergic receptor. The experiment is classed as functional, cell-based. The source holds these as a separate data set.
The target of experiment [9] is Neuronal acetylcholine receptor subunit alpha-4 (Homo sapiens, UniProt P43681).
Sequence of Neuronal acetylcholine receptor subunit alpha-4 (P43681 whole entry): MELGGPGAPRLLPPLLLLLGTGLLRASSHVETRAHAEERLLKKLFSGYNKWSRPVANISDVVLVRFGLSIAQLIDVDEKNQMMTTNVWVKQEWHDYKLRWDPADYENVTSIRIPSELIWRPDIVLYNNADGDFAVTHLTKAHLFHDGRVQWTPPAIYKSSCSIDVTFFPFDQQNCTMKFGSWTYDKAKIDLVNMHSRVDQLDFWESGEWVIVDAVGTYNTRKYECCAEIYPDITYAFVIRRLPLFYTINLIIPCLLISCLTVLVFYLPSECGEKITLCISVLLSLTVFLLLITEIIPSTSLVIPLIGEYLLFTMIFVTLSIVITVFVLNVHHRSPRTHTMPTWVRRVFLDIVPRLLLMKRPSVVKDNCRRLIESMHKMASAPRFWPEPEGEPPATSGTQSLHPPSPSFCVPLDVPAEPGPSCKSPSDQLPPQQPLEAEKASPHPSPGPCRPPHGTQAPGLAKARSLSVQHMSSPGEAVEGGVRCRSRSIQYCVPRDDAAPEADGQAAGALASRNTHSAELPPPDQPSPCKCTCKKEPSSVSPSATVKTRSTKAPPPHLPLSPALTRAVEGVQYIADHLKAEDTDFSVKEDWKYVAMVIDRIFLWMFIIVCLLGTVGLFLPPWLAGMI
For the next experiment, the target named is T5, Endothelin-1 receptor (Homo sapiens, UniProt P25101).
T5 sequence (P25101 whole entry): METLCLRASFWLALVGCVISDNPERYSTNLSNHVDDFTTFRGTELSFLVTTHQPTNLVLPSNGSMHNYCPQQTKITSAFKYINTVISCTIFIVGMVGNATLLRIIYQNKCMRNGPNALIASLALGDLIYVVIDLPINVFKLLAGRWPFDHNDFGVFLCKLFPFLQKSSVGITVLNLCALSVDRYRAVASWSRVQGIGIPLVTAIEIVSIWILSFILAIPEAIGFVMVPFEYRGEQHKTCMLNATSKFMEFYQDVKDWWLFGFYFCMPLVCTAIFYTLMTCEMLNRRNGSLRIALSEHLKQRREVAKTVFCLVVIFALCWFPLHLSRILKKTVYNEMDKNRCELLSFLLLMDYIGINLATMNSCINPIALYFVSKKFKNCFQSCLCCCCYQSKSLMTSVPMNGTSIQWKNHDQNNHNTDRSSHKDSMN

For experiment [10], the target named is Sodium-dependent dopamine transporter (Homo sapiens, UniProt Q01959).
Sequence of Sodium-dependent dopamine transporter (Q01959 whole entry): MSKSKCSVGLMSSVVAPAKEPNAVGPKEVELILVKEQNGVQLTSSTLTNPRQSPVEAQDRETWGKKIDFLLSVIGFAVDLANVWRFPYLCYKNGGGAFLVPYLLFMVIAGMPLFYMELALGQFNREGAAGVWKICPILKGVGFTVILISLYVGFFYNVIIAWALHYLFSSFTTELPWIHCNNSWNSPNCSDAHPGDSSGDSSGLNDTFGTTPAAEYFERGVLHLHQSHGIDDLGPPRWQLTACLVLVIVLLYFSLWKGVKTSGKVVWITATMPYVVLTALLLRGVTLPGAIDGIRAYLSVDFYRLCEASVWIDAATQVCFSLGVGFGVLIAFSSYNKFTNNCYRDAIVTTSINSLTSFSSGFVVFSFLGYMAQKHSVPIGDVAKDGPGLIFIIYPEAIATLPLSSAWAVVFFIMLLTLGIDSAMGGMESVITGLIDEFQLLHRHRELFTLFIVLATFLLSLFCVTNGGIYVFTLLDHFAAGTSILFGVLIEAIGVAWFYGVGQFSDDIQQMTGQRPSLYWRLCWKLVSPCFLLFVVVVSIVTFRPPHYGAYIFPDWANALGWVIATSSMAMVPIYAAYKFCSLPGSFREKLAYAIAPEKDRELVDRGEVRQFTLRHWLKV
Another experiment has as its target Histamine H1 receptor (Homo sapiens, UniProt P35367).
For another experiment, the target named is Cannabinoid receptor 1 (Homo sapiens, UniProt P21554).
Sequence of Cannabinoid receptor 1 (P21554 whole entry): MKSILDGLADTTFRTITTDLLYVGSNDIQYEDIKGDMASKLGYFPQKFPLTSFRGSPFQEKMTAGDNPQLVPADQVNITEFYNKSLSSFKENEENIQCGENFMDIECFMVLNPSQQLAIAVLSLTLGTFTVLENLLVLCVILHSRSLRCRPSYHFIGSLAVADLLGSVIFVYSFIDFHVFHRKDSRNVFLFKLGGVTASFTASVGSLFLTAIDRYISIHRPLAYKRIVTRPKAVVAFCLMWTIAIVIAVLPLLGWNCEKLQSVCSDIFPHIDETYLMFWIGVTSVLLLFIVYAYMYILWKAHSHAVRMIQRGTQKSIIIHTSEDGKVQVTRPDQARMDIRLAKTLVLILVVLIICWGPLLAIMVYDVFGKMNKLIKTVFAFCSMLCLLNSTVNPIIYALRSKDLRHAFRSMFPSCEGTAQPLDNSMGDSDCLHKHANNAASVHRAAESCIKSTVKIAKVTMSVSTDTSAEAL
Experiment [11] deals with T1, Mu-type opioid receptor.
Experiment [12] concerns the target T6, 5-hydroxytryptamine receptor 1A (Homo sapiens, UniProt P08908).
T6 sequence (P08908 whole entry): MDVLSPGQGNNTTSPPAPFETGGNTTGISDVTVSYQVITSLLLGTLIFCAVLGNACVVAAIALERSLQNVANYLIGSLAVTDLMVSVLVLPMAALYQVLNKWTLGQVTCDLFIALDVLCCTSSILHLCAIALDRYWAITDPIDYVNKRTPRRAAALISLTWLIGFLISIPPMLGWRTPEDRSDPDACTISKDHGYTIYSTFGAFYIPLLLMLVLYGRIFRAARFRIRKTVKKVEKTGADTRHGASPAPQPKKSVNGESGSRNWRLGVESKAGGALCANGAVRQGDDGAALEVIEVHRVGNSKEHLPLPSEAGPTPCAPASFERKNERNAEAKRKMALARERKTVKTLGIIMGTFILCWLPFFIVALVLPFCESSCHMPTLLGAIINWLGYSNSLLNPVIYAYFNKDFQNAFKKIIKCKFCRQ
The experiment is classed as functional, cell-based.

For experiment [13], the target named is T3, Alpha-1A adrenergic receptor.
Also: assay procedure not described here.

T1 sequence (P35372 whole entry): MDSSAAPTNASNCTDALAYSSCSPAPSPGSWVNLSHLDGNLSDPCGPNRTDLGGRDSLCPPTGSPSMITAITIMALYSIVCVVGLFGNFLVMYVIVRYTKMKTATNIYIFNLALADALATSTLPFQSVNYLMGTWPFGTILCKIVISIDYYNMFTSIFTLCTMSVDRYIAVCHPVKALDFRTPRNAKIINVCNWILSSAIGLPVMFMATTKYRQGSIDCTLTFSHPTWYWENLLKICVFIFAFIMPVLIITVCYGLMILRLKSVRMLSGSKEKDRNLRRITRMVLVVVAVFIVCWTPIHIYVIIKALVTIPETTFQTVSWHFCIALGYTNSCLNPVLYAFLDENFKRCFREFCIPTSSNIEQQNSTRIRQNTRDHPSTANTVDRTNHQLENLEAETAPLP
Sequence of Histamine H1 receptor (P35367 whole entry): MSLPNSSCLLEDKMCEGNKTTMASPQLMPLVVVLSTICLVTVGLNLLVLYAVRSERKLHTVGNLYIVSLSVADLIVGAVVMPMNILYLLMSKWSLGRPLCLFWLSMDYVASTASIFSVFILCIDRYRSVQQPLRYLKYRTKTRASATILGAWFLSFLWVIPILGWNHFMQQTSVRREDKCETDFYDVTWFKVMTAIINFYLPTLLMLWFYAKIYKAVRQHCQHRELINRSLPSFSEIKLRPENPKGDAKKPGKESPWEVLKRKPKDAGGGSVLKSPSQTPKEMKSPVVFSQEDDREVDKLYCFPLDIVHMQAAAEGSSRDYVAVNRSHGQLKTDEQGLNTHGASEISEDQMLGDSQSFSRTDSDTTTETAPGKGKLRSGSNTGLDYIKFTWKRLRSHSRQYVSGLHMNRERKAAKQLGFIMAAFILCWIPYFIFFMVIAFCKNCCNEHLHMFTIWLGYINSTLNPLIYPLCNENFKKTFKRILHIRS

As to `C[N+]12CCC(CC1)C(OC(=O)C(O)(c1ccccc1)c1ccccc1)C2` (stereo not drawn), the half-maximal activity concentration (AC50) (at Mu-type opioid receptor [1]; in experiment [2]; in [3]; in experiment [4]; in experiment [5]; in [6]) was above 30 µM in each case. Also, the AC50 (in [7]; in experiment [8]; in experiment [9]; at Endothelin-1 receptor; in [10]; at Histamine H1 receptor) was above 30 µM each time.
`NS(=O)(=O)c1cc2c(cc1Cl)N=C(CSCc1ccccc1)NS2(=O)=O` [BENZTHIAZIDE]: the AC50 (as a rule, the concentration at which the activity in the assay is half-maximal) was above 30 µM on Mu-type opioid receptor [1]; above 30 µM in experiment [2]; above 10 µM in experiment [3]; above 10 µM in experiment [5]; above 10 µM at Cannabinoid receptor 1; above 10 µM in experiment [6]. In addition, the half-maximal activity concentration (AC50) on Mu-type opioid receptor [11] was above 30 µM; in experiment [12] it was above 10 µM; in experiment [9] it was above 10 µM; in [13] it was above 30 µM; in experiment [10], above 10 µM; at Histamine H1 receptor, above 30 µM.
Consider `CO/N=C(\C(=O)N[C@@H]1C(=O)N2C(C(=O)O)=CCS[C@H]12)c1csc(N)n1` [CEFTIZOXIME], for which the AC50 (at Mu-type opioid receptor [1]; in experiment [2]; in [4]; in experiment [5]; in experiment [6]; in experiment [7]) was above 30 µM throughout. Besides, the AC50 (in experiment [8]; in experiment [9]; at Endothelin-1 receptor; in [10]; at Histamine H1 receptor) was above 30 µM each time.
As for `CC(C)[C@@H](C)/C=C/[C@@H](C)[C@H]1CC[C@H]2/C(=C/C=C3\C[C@@H](O)CC[C@@H]3C)CCC[C@]12C` [DIHYDROTACHYSTEROL], the AC50 is above 10 µM in experiment [2]; above 10 µM in [3]; above 10 µM in experiment [5]; above 10 µM at Cannabinoid receptor 1; above 10 µM in experiment [6]; above 30 µM on Mu-type opioid receptor [11]. Further, the AC50 (in experiment [12]; in experiment [9]; in experiment [13]; in experiment [10]; on Histamine H1 receptor) was above 10 µM in each case.
Consider `CCCC(C)(COC(N)=O)COC(N)=O` [MEPROBAMATE], for which the AC50 is above 30 µM on Mu-type opioid receptor [1]; above 30 µM in experiment [2]; above 10 µM in experiment [3]; above 10 µM in experiment [5]; above 10 µM at Cannabinoid receptor 1; above 10 µM in experiment [6]. Also, the AC50 at Mu-type opioid receptor [11] is above 30 µM; in [12] it was above 10 µM; in experiment [9] it was above 10 µM; in experiment [13] it was above 30 µM; in experiment [10], above 10 µM; at Histamine H1 receptor, above 10 µM.
With `O=C(NCCO[N+](=O)[O-])c1cccnc1` [NICORANDIL], the AC50 (on Mu-type opioid receptor [1]; in [2]; in [3]; in [4]; in experiment [5]; in experiment [6]) was above 30 µM in each case. The AC50 (in [7]; in experiment [8]; in experiment [9]; at Endothelin-1 receptor; in experiment [10]; on Histamine H1 receptor) was above 30 µM in each case.
`CO[C@H]1C[C@H](O[C@H]2CC[C@@]3(C)[C@H](CC[C@@H]4[C@@H]3CC[C@]3(C)[C@@H](C5=CC(=O)OC5)[C@@H](OC(C)=O)C[C@]43O)C2)O[C@@H](C)[C@@H]1O` [OLEANDRIN]: the AC50 in experiment [2], in experiment [3], in experiment [4], in experiment [6], in experiment [7] and in [8] was above 30 µM throughout. Moreover, the AC50 (in experiment [12]; at Histamine H1 receptor) was above 30 µM in each case.
With `COc1cc2[nH]c(C)c(CCN3CCN(c4ccccc4)CC3)c2cc1OC` [OXYPERTINE], the AC50 at Mu-type opioid receptor [1] was above 30 µM; in [2] it was above 30 µM; in experiment [3] it was above 30 µM; in experiment [4], above 30 µM; in experiment [5], above 30 µM; in experiment [6], 0.41 µM. Moreover, the AC50 is above 30 µM in experiment [7]; 0.15 µM in experiment [12]; 27 µM in [9]; above 30 µM on Endothelin-1 receptor; 2.3 µM in experiment [10]; 1.9 µM on Histamine H1 receptor.
On to `COc1cc(C(=O)OCc2cccc(COC(=O)c3cc(OC)c(OC)c(OC)c3)n2)cc(OC)c1OC` [PIROZADIL], for which the AC50 (at Mu-type opioid receptor [1]; in [2]; in experiment [3]; in experiment [4]; in experiment [5]; in experiment [6]) was above 30 µM throughout. The AC50 (in [7]; in [12]; in experiment [9]; at Endothelin-1 receptor; in [10]; on Histamine H1 receptor) was above 30 µM throughout.
On to `CC1=C(/C=C/C(C)=C/C=C/C(C)=C/CO)C(C)(C)CCC1` [RETINOL], for which the AC50 at Mu-type opioid receptor [1] was above 30 µM; in experiment [2], above 10 µM; in experiment [5] it was above 10 µM; at Cannabinoid receptor 1, above 10 µM; in [6], above 10 µM; at Mu-type opioid receptor [11], above 30 µM. The AC50 (in experiment [12]; in experiment [9]; in experiment [13]; in experiment [10]; at Histamine H1 receptor) was above 10 µM in each case.
